From publication PMC10035947, “Development of novel anilinoquinazoline-based carboxylic acids as non-classical carbonic anhydrase IX and XII inhibitors” (Journal of Enzyme Inhibition and Medicinal Chemistry, 2023)

Legend:
[1] = system: HCC-2998; experiment: NCI SRB assay; format: cell-based, human
[2] = system: MDA-MB-468; experiment: NCI SRB assay; format: cell-based, human
[3] = system: HOP-62; experiment: NCI SRB assay; format: cell-based, human
[4] = system: KM12; experiment: NCI SRB assay; format: cell-based, human
[5] = system: NCI-H460; experiment: NCI SRB assay; format: cell-based, human
[6] = system: HS 578 T; experiment: NCI SRB assay; format: cell-based, human
[7] = system: 59 human cancer cell lines representing nine tumour subpanels; experiment: NCI SRB assay, panel and subpanel summaries; settings: all cell lines
[8] = system: U251; experiment: NCI SRB assay; format: cell-based, human
[9] = system: SNB-75; experiment: NCI SRB assay; format: cell-based, human
[10] = system: SK-MEL-5; experiment: NCI SRB assay; format: cell-based, human
[11] = target: T1, hCA II (Homo sapiens, UniProt P00918); experiment: stopped flow CO2 hydrase assay; format: biochemical; settings: mean from 3 assays
T1 construct: made in house
Experimental: Carbonic anhydrase inhibition assay
The carbonic anhydrase catalyzed CO2 hydration actions for the quinazoline-based carboxylic acid derivatives (6a-c, 7a-c and 8a-c) were assayed utilizing an instrument of Applied Photophysics stopped-flow, as described previously. The enzymes are recombinant proteins prepared in our lab. Phenol red (at a concentration of 0.2 mM) has been used as indicator, working at the absorbance maximum of 557 nm, with 20 mM Hepes (pH 7.5) as buffer, and 20 mM Na2SO4 (for maintaining constant the ionic strength), following the initial rates of the CA- […]
1.7 to 17 mM for the determination of the kinetic parameters and inhibition constants. For each inhibitor at least six traces of the initial 5-10% of the reaction have been used for determining the initial velocity. The uncatalyzed rates were determined in the same manner and subtracted from the total observed rates. Stock solutions of inhibitor (0.1 mM) were prepared in distilled-deionized water and dilutions up to 0.01 nM were done thereafter with the assay buffer. Inhibitor and enzyme solutions were preincubated together for 15 min at room temperature prior to assay, in order to allow for the formation of the E-I complex. The inhibition constants were obtained by non-linear least-squares methods using PRISM 3 and the Cheng-Prusoff equation, and represent the mean from at least three different determinations.

[12] = system: PC-3; experiment: NCI SRB assay; format: cell-based, human
[13] = system: MALME-3M; experiment: NCI SRB assay; format: cell-based, human
[14] = system: NCI-H522; experiment: NCI SRB assay; format: cell-based, human
[15] = system: HT29; experiment: NCI SRB assay; format: cell-based, human
[16] = system: SW-620; experiment: NCI SRB assay; format: cell-based, human
[17] = system: TK-10; experiment: NCI SRB assay; format: cell-based, human
[18] = system: M14; experiment: NCI SRB assay; format: cell-based, human
[19] = system: MDA-MB-435; experiment: NCI SRB assay; format: cell-based
[20] = system: HCT-116; experiment: NCI SRB assay; format: cell-based, human
[21] = system: COLO 205; experiment: NCI SRB assay; format: cell-based, human
[22] = system: OVCAR-8; experiment: NCI SRB assay; format: cell-based, human
[23] = system: OVCAR-5; experiment: NCI SRB assay; format: cell-based, human
[24] = system: SN12C; experiment: NCI SRB assay; format: cell-based, human; settings: SN12C
[25] = system: OVCAR-3; experiment: NCI SRB assay; format: cell-based, human
[26] = system: 786-0; experiment: NCI SRB assay; format: cell-based, human

Cc1cccc(-c2nc(Nc3ccc(C(=O)O)cc3)c3ccccc3n2)c1 [8a, 4-((2-(m-Tolyl)quinazolin-4-yl)amino)benzoic acid]
GI% ([1]; HCC-2998, 10 μM): 24% | Growth Percent ([1]; HCC-2998, 1.00E-5 Molar): 75.96% | GI% ([2]; MDA-MB-468, 10 μM): – (Only GI% higher than 20% are shown) | Growth Percent ([2]; MDA-MB-468, 1.00E-5 Molar): 113.23% | GI% ([3]; HOP-62, 10 μM): – (Only GI% higher than 20% are shown) | Growth Percent ([3]; HOP-62, 1.00E-5 Molar): 95.14% | GI% ([4]; KM12, 10 μM): 23% | Growth Percent ([4]; KM12, 1.00E-5 Molar): 76.63% | GI% ([5]; NCI-H460, 10 μM): 22% | Growth Percent ([5]; NCI-H460, 1.00E-5 Molar): 78.01% | GI% ([6]; HS 578 T, 10 μM): 48% | Growth Percent ([6]; HS 578T, 1.00E-5 Molar): 51.51% | Mean GI % ([7]; 10 μM): 16% | Mean Growth Percent ([7]; 1.00E-5 Molar): 84.51% | GI% ([8]; U251, 10 μM): 27% | Growth Percent ([8]; U251, 1.00E-5 Molar): 72.61% | GI% ([9]; SNB-75, 10 μM): – (Only GI% higher than 20% are shown) | Growth Percent ([9]; SNB-75, 1.00E-5 Molar): 100.40% | GI% ([10]; SK-MEL-5, 10 μM): 29% | Growth Percent ([10]; SK-MEL-5, 1.00E-5 Molar): 71.03% | Ki [11]: 9.3 µM | GI% ([12]; PC-3, 10 μM): – (Only GI% higher than 20% are shown) | Growth Percent ([12]; PC-3, 1.00E-5 Molar): 83.31% | GI% ([13]; 10 μM): – (Only GI% higher than 20% are shown) | Growth Percent ([13]; 1.00E-5 Molar): 110.61% | GI% ([14]; NCI-H522, 10 μM): – (Only GI% higher than 20% are shown) | Growth Percent ([14]; NCI-H522, 1.00E-5 Molar): 87.55% | GI% ([15]; HT29, 10 μM): – (Only GI% higher than 20% are shown) | Growth Percent ([15]; HT29, 1.00E-5 Molar): 91.72% | GI% ([16]; SW-620, 10 μM): – (Only GI% higher than 20% are shown) | Growth Percent ([16]; SW-620, 1.00E-5 Molar): 84.27% | GI% ([17]; TK-10, 10 μM): – (Only GI% higher than 20% are shown) | Growth Percent ([17]; TK-10, 1.00E-5 Molar): 91.50% | GI% ([18]; M14, 10 μM): – (Only GI% higher than 20% are shown) | Growth Percent ([18]; M14, 1.00E-5 Molar): 88.98% | GI% ([19]; MDA-MB-435, 10 μM): – (Only GI% higher than 20% are shown) | Growth Percent ([19]; MDA-MB-435, 1.00E-5 Molar): 96.58% | GI% ([20]; HCT-116, 10 μM): – (Only GI% higher than 20% are shown) | Growth Percent ([20]; HCT-116, 1.00E-5 Molar): 81.80% | GI% ([21]; COLO 205, 10 μM): – (Only GI% higher than 20% are shown) | Growth Percent ([21]; COLO 205, 1.00E-5 Molar): 135.98% | GI% ([22]; OVCAR-8, 10 μM): – (Only GI% higher than 20% are shown) | Growth Percent ([22]; OVCAR-8, 1.00E-5 Molar): 82.44% | GI% ([23]; OVCAR-5, 10 μM): – (Only GI% higher than 20% are shown) | Growth Percent ([23]; OVCAR-5, 1.00E-5 Molar): 133.93% | GI% ([24]; 10 μM): 42% | Growth Percent ([24]; 1.00E-5 Molar): 58.07% | GI% ([25]; OVCAR-3, 10 μM): – (Only GI% higher than 20% are shown) | Growth Percent ([25]; OVCAR-3, 1.00E-5 Molar): 82.69% | GI% ([26]; 786-0, 10 μM): 29% | Growth Percent ([26]; 786-0, 1.00E-5 Molar): 70.77%
